Results on four molecules are retold here after patent US8440830B2, “Tetrahydro-fused pyridines as histone deacetylase inhibitors” (4SC AG, priority 2007, dated 2013).

Like-named read-outs stand apart in the source and are kept apart here.

The test system of test [1] is fully transformed malignant cancer cell lines. In words: Anti-proliferative activity, selection of cell lines (Alamar Blue). It counts as cell-based. To be noted: Homo sapiens, 72 h, mean over cell lines, read-out: Mean IC50 values as calculated for fully malignant cancer cell lines. The procedure: (§1) The anti-proliferative activity of the histone deacetylase inhibitory compounds as described herein, is evaluated using the following cell lines: HeLa and HeLa-KB (cervical carcinoma), H460 (non small cell lung cancer), A549 (non-small cell lung cancer), MCF7 (breast carcinoma), MCF10A (normal, non tumorigenic breast epithelial), MDA-MB468 (breast carcinoma), MDA-MB435 (breast carcinoma), MDA-MB231 (breast carcinoma), SKBR-3 (breast carcinoma), SKOV-3 (ovarial carcinoma), A-2780 (ovarial carcinoma), RKO (colon carcinoma), HCT-15 (colon carcinoma), HCT-116 (colon carcinoma), PC3 (prostate carcinoma), BPH1 (benign prostate hyperplasia), AsPC1 (pancreatic carcinoma), Ca127 (tongue carcinoma), A-431 (vulva carcinoma), Hec1A (endometrial carcinoma), Saos-2 (osteosarcoma), U87MG (glioblastoma), WM266-4 (melanoma), K562 (chronic myeloid leukemia), EOL1 (acute hypereosinophilic myeloid leukemia), CCRF-CEM and CCRF-CEM VCR1000 (acute lymphoblastic leukemia sensitive and resistant towards Vincristine). For quantification of cellular proliferation/living cells the Alamar Blue (Resazurin) cell viability assay is applied (O'Brien et al. Eur J Biochem 267, 5421-5426, 2000). In this assay Resazurin is reduced to the fluorescent resorufine by cellular dehydrogenase activity, correlating with viable, proliferating cells. The examples are dissolved as 20 mM solutions in dimethylsulfoxide (DMSO) and subsequently diluted in semi-logarithmic steps. Cell lines are seeded at respective density into 96 well flat bottom plates in a volume of 200 μl per well. 24 h after seeding 1 μl each of the compound dilutions are added into each well of the 96 well plate. Each compound dilution is tested as quadruplicates. Wells containing untreated control cells are filled with 200 μl DMEM medium containing 0.5% v:v DMSO. The cells are then incubated with the compounds for 72 h at 37° C. in a humidified atmosphere containing 5% carbon dioxide. To determine the viability of the cells, 20 μl of a Resazurin solution (Sigma; 90 mg/l) are added. After 4 h incubation at 37° C. the fluorescence is measured at an extinction of λ=544 nm and an emission of λ=590 nm. For the calculation of the cell viability the emission value from untreated cells is set as 100% viability and the emission rates of treated cells are set in relation to the values of untreated cells. Viabilities are expressed as % values. The corresponding IC50 values of the compounds for cytotoxic activity are determined from the concentration-effect curves by means of non-linear regression.
The anti-proliferative activity of compounds from examples 1, 2, 3, 12 and 150 is evaluated by using a broad selection of non-malignant cell lines and fully transformed malignant cancer cell lines.

For test [2], the system named is RKO colon carcinoma cells with conditional p21^waf1 expression. In words: Cell cycle dependent cytotoxicity, RKO exop21 cell system. To be noted: Homo sapiens, 72 h. It counts as cell-based. As for the experimental part: as §1
For determination of cell-cycle dependent cytotoxicity, the RKO exop21 cell system is applied (Schmidt et al. Oncogene 19: 2423-2429, 2000). Briefly, RKO cells with/without p21^waf1 expression (2×10^4 cells/well induced, 6×10^3 cells/well not induced) are treated with the compounds for 72 h and metabolic activity quantified as described before. The expression of p21^waf1 was induced by treatment with Pronasterone A, causing a complete proliferation arrest of RKO cells in the G1 and G2 phases of the cell division cycle.

Test [3] concerns A549 NSCLC cells. In words: Cellular cytotoxicity assay (Alamar Blue), A549. To be noted: Homo sapiens, 72 h, upper end given as ≧100, read-out: IC50 (μM), cytotoxicity towards A549 NSCLC cells. The test is classed as cell-based. In short, it runs like this: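 Resazurin-to-resorufin fluorescence (ex 544, em 590 nm, after 4 h) gave viability as % of untreated cells following 72 h compound exposure at 37 °C. Compounds were added in semi-logarithmic dilutions 24 h post-seeding, quadruplicate wells; IC50 fitted by non-linear regression of concentration-effect curves.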
On the technique in general: Alamar Blue is a resazurin reagent that responds to reducing activity.

The subject of test [4] is A549 NSCLC cells. Description: Cell cycle analysis by flow cytometry. The test is classed as cell-based, human. To be noted: A549, 24 h treatment. The procedure:
A549 NSCLC cells (ATTC CCL-185) are cultivated in DMEM with high glucose (supplemented with 10% FBS) at 5% CO2 and 37° C. in a humidified atmosphere under standard cell culture conditions. 24 h before compound treatment, cells are seeded at 5×10^4 cells/ml (=5×10^5 cells/10 cm cell culture dish) to allow logarithmic proliferation during the experiment. After 24 h, cells were treated with test compound or 0.5 vol % DMSO as a control. After 24 h and 48 h treatment, the culture medium is collected and detached, floating cells are collected by short centrifugation (5 min at 1200 rpm). Attached cells are washed once with 5 ml PBS, detached by treatment with 3 ml trypsin/EDTA solution (short incubation for 3-5 min) and—together with detached, floating cells—transferred into 15 ml Falcon tubes. The cell culture dish is washed with 10 ml DMEM to collect all remaining cells. After centrifugation for 5 min at 1200 rpm at room temperature, the supernatant is discarded and the cell pellet washed twice with 10 ml PBS. The supernatant is discarded, the cells resuspended in 4 ml ice-cold fixation solution (70 vol % ethanol, 30 vol % H2O; stored at −20° C.) and stored at −20° C. overnight. Next, 10 ml PBS (4° C.) is added to the cells, before centrifugation for 5 min at 1200 rpm (4° C.). The supernatant is discarded, the cell pellet washed once with 10 ml PBS (4° C.) and the cell pellet finally resuspended in about 1 ml staining solution (10 μg/ml RNAse A, 10 μg/ml propidiumiodide in PBS, final volume dependent on cell number). After incubation for 30 min at room temperature in the dark, cells are stored on ice and analyzed using the Becton Dickinson FACS Canto device. Analysis is done at an excitation of λ=488 nm with emission set as λ=600 nm.
Data analysis: Cells are analyzed according to size, granularity and propidiumiodide intensity. Size and granularity of cells are determined by measurement of forward scatter (FSC) and side scatter (SSC) of the λ=488 nm excitation light, respectively. To discriminate cells with 4N DNA content from cell doublets (two attached cells with 2N DNA content each), the ratio between the area under the propidiumiodide peak (PE-A) and the height of the propidiumiodide peak (PE-H) for each cell is determined. Cell doublets need more time to pass through the laser beam, which causes a broadening of the propidiumiodide peak and an increase of the ratio PE-A/PE-H. Using this analysis, cells in 4N and cell doublets appear as distinct clouds in a scatter plot and are excluded from the analysis. Thus, the area under the propidiumiodide peak at λ=600 nm (PE-A) is a measure for the DNA content of the cells. PE-A is blotted against the measured cell number in a histogram in order to determine the percentage of analyzed cells in an individual stage of the cell cycle.

[5] abbreviates: RKO arrested, p21^waf1 expressed, read-out: RKO arrested (p21^waf1 expressed) IC50.
[6] abbreviates: RKO proliferating, p21^waf1 not induced, read-out: RKO proliferating IC50.

In general, IC50 refers to the concentration that gives 50% inhibition. `Nc1ccccc1NC(=O)c1nc2c(s1)CN(C(=O)Nc1ccc(-c3ccccc3)cc1)CC2` [Example 1, N^2-(2-aminophenyl)-N5-biphenyl-4-yl-6,7-dihydro[1,3]thiazolo[5,4-c]pyridine-2,5(4H)-dicarboxamide]: the IC50 in test [1] is 2400 to 5400 nM; in test [2] (setting [5]) it was 1100 to 4900 nM; in test [2] (setting [6]), 1100 to 4000 nM; in the test on A549 NSCLC cells [3], ≥ 0.2 µM. Further, the “concentration inducing arrest in G1, depletion of cells in the S-phase and reduction of cells in the G2/M-phase” value with A549 NSCLC cells [4] is “around 3 μM”.
As for `CN(C)c1ccc(NC(=O)N2CCc3nc(C(=O)Nc4ccccc4N)sc3C2)cc1` [Example 2, N^2-(2-aminophenyl)-N5-[4-(dimethylamino)phenyl]-6,7-dihydro[1,3]thiazolo[5,4-c]pyridine-2,5(4H)-dicarboxamide], the IC50 is 2400 to 5400 nM in test [1], 1100 to 4900 nM in test [2] (setting [5]), 1100 to 4000 nM in test [2] (setting [6]) and ≥ 0.2 µM in the test on A549 NSCLC cells [3]. Also, the “concentration inducing arrest in G1, depletion of cells in the S-phase and reduction of cells in the G2/M-phase” value in the test on A549 NSCLC cells [4] is on record as “around 3 μM”.
As to `COc1ccc(NC(=O)N2CCc3nc(C(=O)Nc4ccccc4N)sc3C2)cc1` [Example 3, N^2-(2-aminophenyl)-N5-(4-methoxyphenyl)-6,7-dihydro[1,3]thiazolo[5,4-c]pyridine-2,5(4H)-dicarboxamide], the IC50 is 2400 to 5400 nM in test [1], 1100 to 4900 nM in test [2] (setting [5]), 1100 to 4000 nM in test [2] (setting [6]) and ≥ 0.2 µM in the test on A549 NSCLC cells [3]. In addition, in the test with A549 NSCLC cells [4], the “concentration inducing arrest in G1, depletion of cells in the S-phase and reduction of cells in the G2/M-phase” value is “around 3 μM”.
Turning to `Nc1ccccc1NC(=O)c1nc2c(s1)CN(C(=O)Nc1cnc3ccccc3c1)CC2` [Example 12, N^2-(2-aminophenyl)-N5-quinolin-3-yl-6,7-dihydro[1,3]thiazolo[5,4-c]pyridine-2,5(4H)-dicarboxamide], the IC50 in test [1] was 2400 to 5400 nM; in test [2] (setting [5]), 1100 to 4900 nM; in test [2] (setting [6]) it was 1100 to 4000 nM; in the test on A549 NSCLC cells [3] it was ≥ 0.2 µM. In addition, the “concentration inducing arrest in G1, depletion of cells in the S-phase and reduction of cells in the G2/M-phase” value in the test on A549 NSCLC cells [4] is “around 3 μM”.
